Here are results for three compounds from patent US6420399B1, “Topical ophthalmic mast cell stabilizers for treating allergic eye disease” (Alcon Manufacturing, Ltd., priority 1999, dated 2002).

One data set relates to mast cells. The note with it: concentrations higher than those with antihistaminic / stabilizing activity; cited from earlier work.
Data set [1] has as its system human conjunctival mast cells. The note with it: purified preparations of human conjunctival mast cells; Yanni et al. 1996; cited from earlier work.
Data set [2] is described as follows: Surface Activity Rating: change in surface pressure of SOPC monolayer in Langmuir trough. The format is physicochemical. The note with it: initial surface pressure 30 mN/m, 24° C. An excerpt:
The Surface Activity Rating is obtained by determining the interaction of an amphipathic anti-allergy drug (“test compound”) in buffer alone with a phospholipid monolayer. Test compound/mast cell membrane interaction is mimicked in a phospholipid monolayer spread onto an aqueous buffer in a modified Langmuir trough. In this system, test compound-membrane interaction is quantified by determining the change in surface pressure (Δπ in mN/m) of a monomolecular film of 1-stearoyl-2-oleoyl-sn-glycero-3-phosphocholine (SOPC) spread at an initial surface pressure of 28-32 mN/m on an aqueous buffer sub-phase. The initial surface pressure of 28-32 mN/m is chosen because this pressure mimics that of most mammalian cell membranes. […]
Surface pressure is measured using an automated interfacial monitor-controller built around a Cahn 27 electrobalance equipped with a 24 ga. nichrome wire Wilhelmy probe. […]
The effect of test compound on surface pressure is determined by a continuous exchange of the aqueous phase with a concentrated solution of the test compound in buffer. […] The concentration of test compound in the aqueous phase is determined from the fraction of sub-phase volume exchanged and the concentration of the solute in the concentrated solution. […]

In the case of `O=C(O)c1cc(=O)c2c(OCC(O)COc3cccc4oc(C(=O)O)cc(=O)c34)cccc2o1` [cromolyn sodium], the “effect on histamine release from mast cells as a function of concentration” value in the data set on mast cells is “biphasic behavior”. With `CN1CCC(=C2c3ccccc3CC(=O)c3sccc32)CC1` [ketotifen, 4,9-dihydro-4-(1-methyl-4-piperidinyl-idene)-10H-benzo[4,5]cyclohepta-[1,2-b]thiophen-10-one], the “effect on histamine release as a function of concentration” value in data set [1] was “biphasic behavior”. Further, the “increase in surface pressure (Surface Activity Rating)” value in data set [2] (pH 7.5, concentration range of 0-3.5 mM) is given as 15 mN/m. As to `CN(C)CC/C=C1/c2ccccc2COc2ccc(CC(=O)O)cc21` [olopatadine, Z-11-(3-dimethylaminopropylidene)-6,11-dihydrodibenz[b,e]oxepin-2-acetic acid], in the data set on mast cells, the “effect on histamine release from mast cells as a function of concentration” value is recorded as “does not provoke a release of histamine from mast cells”. Besides, the “increase in surface pressure (Surface Activity Rating)” value in data set [2] (pH 7.5, concentration in aqueous sub-phase increased from 0 to 5 mM) is reported as 7.1 mN/m.
